Test results taken from patent US20230114728A1 (Venatorx Pharmaceuticals, Inc., priority 2019, published 2023).
Converted amounts (≈) assume the structure as drawn.

Columns and labels:
E. coli K12 PBP3 = target: T1, E. coli K12 PBP3 (Escherichia coli, UniProt P0AD68); assay: biochemical; type: binding
T1 construct: made in house
Method in brief: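 Fluorescence polarization (ex 490/em 520 nm) competition of inhibitors against Bocillin-FL at 0.1 μM, read up to 60 min. Final PBP levels: E. coli PBP3 1.5 μM; A. baumannii PBP2 2.5 μM, PBP3 0.2 μM in Tris pH 8.0/NaCl/glycerol/Tween 20; N. gonorrhoeae PBP2 […] in Hepes pH 8.0/NaCl/glycerol. EC50 = concentration halving PBP-bound Bocillin-FL.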

N. gonorrhoeae H041 = assay: Liquid broth MIC in Fastidious broth; type: cell-based; conditions: Neisseria gonorrhoeae, H041, read-out: Minimum Inhibitory Concentration, N. gonorrhoeae H041
Method in brief: (§1)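 Mosaic-PBP2 strains grown 24 h on chocolate agar (36 °C, 5% CO2), then direct-suspended in saline and OD600-adjusted. Twofold compound dilutions in Fastidious broth inoculated at 5×10^5 CFU/mL and incubated ~24 h at 36 °C, 5% CO2. MIC read visually as lowest concentration with <10% growth versus full-growth wells.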

N. gonorrhoeae WHO K = assay: Liquid broth MIC in Fastidious broth; type: cell-based; conditions: Neisseria gonorrhoeae, read-out: Minimum Inhibitory Concentration, N. gonorrhoeae WHO K
Method in brief: as §1

N. gonorrhoeae WHO G = assay: Liquid broth MIC in Fastidious broth; type: cell-based; conditions: Neisseria gonorrhoeae; N. gonorrhoeae strain WHO G; Fastidious broth; read-out: Minimum Inhibitory Concentration, N. gonorrhoeae WHO G
Method in brief: (§2)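 Colonies were swabbed from chocolate agar after 24 h growth and standardised by optical density at 600 nm. Compounds were serially diluted twofold in Fastidious broth, and bacteria added to give 5×10^5 CFU/mL. After about 24 h at 36 °C in 5% CO2, the lowest concentration allowing under 10% growth was taken as MIC.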

N. gonorrhoeae WHO Z = assay: Liquid broth MIC in Fastidious broth; type: cell-based; conditions: Neisseria gonorrhoeae, read-out: Minimum Inhibitory Concentration, N. gonorrhoeae WHO Z
Method in brief: as §1

N. gonorrhoeae WHO L = assay: Liquid broth MIC in Fastidious broth; type: cell-based; conditions: Neisseria gonorrhoeae; N. gonorrhoeae strain WHO L; Fastidious broth; read-out: Minimum Inhibitory Concentration, N. gonorrhoeae WHO L
Method in brief: as §2

N. gonorrhoeae WHO Q = assay: Liquid broth MIC in Fastidious broth; type: cell-based; conditions: Neisseria gonorrhoeae, read-out: Minimum Inhibitory Concentration, N. gonorrhoeae WHO Q
Method in brief: as §1

[1] = test system: N. gonorrhoeae ATCC 49226; assay: Liquid broth MIC in Fastidious broth; type: cell-based; conditions: Neisseria gonorrhoeae, ATCC49226; N. gonorrhoeae strain ATCC 49226; Fastidious broth; read-out: Minimum Inhibitory Concentration, N. gonorrhoeae ATCC 49226
Method in brief: as §2

N. gonorrhoeae FA1090 = assay: Liquid broth MIC in Fastidious broth; type: cell-based; conditions: Neisseria gonorrhoeae; N. gonorrhoeae strain FA1090; Fastidious broth; read-out: Minimum Inhibitory Concentration, N. gonorrhoeae FA1090
Method in brief: as §2

P. aeruginosa PBP3 = target: T2, P. aeruginosa PBP3 (Pseudomonas aeruginosa, UniProt G3XD46); assay: Bocillin-FL fluorescence polarization competition binding assay, P. aeruginosa PBP3; conditions: fluorescence polarization competition binding assay using Bocillin-FL
T2 construct: made in house
Method in brief: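 Binding of boronic acid inhibitors to purified Pseudomonas aeruginosa (PA01) PBP3 was measured by fluorescence polarization competition with Bocillin-FL, a fluorescent penicillin V. Reactions of 80 μl contained 0.75 μM PBP3 and 0.1 μM Bocillin-FL in 50 mM Hepes (pH 8.0), 300 mM NaCl and 5% (v/v) glycerol, in black 384-well plates. FP (Excitation 490 nm, Emission 520 nm) was read for up to 60 minutes. EC50 is the concentration that halves PBP-bound Bocillin-FL.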

T1 sequence (P0AD68 1-577): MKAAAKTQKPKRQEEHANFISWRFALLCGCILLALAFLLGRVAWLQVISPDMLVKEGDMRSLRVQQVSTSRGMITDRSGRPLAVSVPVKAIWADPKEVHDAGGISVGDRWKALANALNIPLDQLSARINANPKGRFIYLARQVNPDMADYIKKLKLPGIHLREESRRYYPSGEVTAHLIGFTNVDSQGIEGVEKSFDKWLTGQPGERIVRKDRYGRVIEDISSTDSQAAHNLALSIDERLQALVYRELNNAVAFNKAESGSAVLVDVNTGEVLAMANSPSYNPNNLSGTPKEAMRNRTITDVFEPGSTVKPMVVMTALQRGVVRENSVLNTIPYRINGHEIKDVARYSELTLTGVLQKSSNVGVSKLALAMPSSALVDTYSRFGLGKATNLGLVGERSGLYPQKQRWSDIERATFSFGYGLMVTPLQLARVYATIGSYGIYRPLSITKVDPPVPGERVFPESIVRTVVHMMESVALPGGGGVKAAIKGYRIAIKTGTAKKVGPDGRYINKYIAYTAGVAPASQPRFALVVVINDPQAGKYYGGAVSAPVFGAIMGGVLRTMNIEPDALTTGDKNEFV
T2 sequence (G3XD46 whole entry): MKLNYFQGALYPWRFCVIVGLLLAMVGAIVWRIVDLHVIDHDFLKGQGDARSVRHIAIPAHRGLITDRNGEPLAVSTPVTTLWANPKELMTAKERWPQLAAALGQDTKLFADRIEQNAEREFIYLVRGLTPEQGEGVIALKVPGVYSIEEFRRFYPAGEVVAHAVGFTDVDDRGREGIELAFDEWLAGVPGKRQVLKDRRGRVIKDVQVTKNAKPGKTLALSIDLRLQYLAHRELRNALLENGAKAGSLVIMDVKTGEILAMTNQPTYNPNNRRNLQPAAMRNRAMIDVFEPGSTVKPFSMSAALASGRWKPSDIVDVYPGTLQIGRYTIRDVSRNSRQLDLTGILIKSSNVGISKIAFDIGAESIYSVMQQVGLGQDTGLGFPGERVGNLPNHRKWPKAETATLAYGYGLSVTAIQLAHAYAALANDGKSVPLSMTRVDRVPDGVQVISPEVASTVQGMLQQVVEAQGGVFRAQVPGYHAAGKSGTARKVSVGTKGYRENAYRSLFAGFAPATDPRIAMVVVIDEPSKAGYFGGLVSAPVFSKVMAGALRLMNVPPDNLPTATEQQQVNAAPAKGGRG

SMILES	EC50 (E. coli K12 PBP3) [µM]	MIC (N. gonorrhoeae H041) [µg/mL]	MIC (N. gonorrhoeae WHO K) [µg/mL]	MIC (N. gonorrhoeae WHO G) [µg/mL]	MIC (N. gonorrhoeae WHO Z) [µg/mL]	MIC (N. gonorrhoeae WHO L) [µg/mL]	MIC (N. gonorrhoeae WHO Q) [µg/mL]	MIC [1] [µg/mL]	MIC (N. gonorrhoeae FA1090) [µg/mL]	P. aeruginosa PBP3 Potency (P. aeruginosa PBP3)
NC1(CN2CCN(C(=O)NC(C(=O)N[C@H]3Cc4cccc(C(=O)O)c4OB3O)c3cccc(NS(N)(=O)=O)c3)C(=O)C2=O)CC1 (stereo partly drawn) [Example 120, (3R)-3-(2-(4-((1-aminocyclopropyl)methyl)-2,3-dioxopiperazine-1-carboxamido)-2-(3-(sulfamoylamino)phenyl)acetamido)-2-hydroxy-3,4-dihydro-2H-benzo[e][1,2]oxaborinine-8-carboxylic acid]	30 to 500	> 64	> 64	> 64	> 64	> 64	> 64	> 64	4 to 8 (≈ 6.22 to 12.4 µM)	D (D represents a potency <10 μM)
O=C(O)c1c(F)ccc2c1OB(O)[C@@H](NC(=O)C(NC(=O)N1CCN(CCF)C(=O)C1=O)c1c(F)cc(O)cc1F)C2 (stereo partly drawn) [Example 129, (3R)-3-(2-(2,6-difluoro-4-hydroxyphenyl)-2-(4-(2-fluoroethyl)-2,3-dioxopiperazine-1-carboxamido)acetamido)-7-fluoro-2-hydroxy-3,4-dihydro-2H-benzo[e][1,2]oxaborinine-8-carboxylic acid]	< 30	16 to 32 (≈ 26.8 to 53.7 µM)	16 to 32 (≈ 26.8 to 53.7 µM)	4 to 8 (≈ 6.71 to 13.4 µM)	4 to 8 (≈ 6.71 to 13.4 µM)	> 64	16 to 32 (≈ 26.8 to 53.7 µM)	16 to 32 (≈ 26.8 to 53.7 µM)	1 to 2 (≈ 1.68 to 3.35 µM)	D (D represents a potency <10 μM)
CCN1CCN(C(=O)NC(C(=O)N[C@H]2Cc3ccc(F)c(C(=O)O)c3OB2O)c2c(F)cc(O)cc2F)C(=O)C1=O (stereo partly drawn) [Example 130, (3R)-3-(2-(2,6-difluoro-4-hydroxyphenyl)-2-(4-ethyl-2,3-dioxopiperazine-1-carboxamido)acetamido)-7-fluoro-2-hydroxy-3,4-dihydro-2H-benzo[e][1,2]oxaborinine-8-carboxylic acid]	< 30	16 to 32 (≈ 27.7 to 55.3 µM)	16 to 32 (≈ 27.7 to 55.3 µM)	4 to 8 (≈ 6.92 to 13.8 µM)	4 to 8 (≈ 6.92 to 13.8 µM)	> 64	16 to 32 (≈ 27.7 to 55.3 µM)	4 to 8 (≈ 6.92 to 13.8 µM)	1 to 2 (≈ 1.73 to 3.46 µM)	D (D represents a potency <10 μM)
NS(=O)(=O)Nc1cccc(C(NC(=O)N2CCN(Cc3c(F)cc(O)c(O)c3Cl)C(=O)C2=O)C(=O)N[C@H]2Cc3cccc(C(=O)O)c3OB2O)c1 (stereo partly drawn) [Example 131, (3R)-3-(2-(4-(2-chloro-6-fluoro-3,4-dihydroxybenzyl)-2,3-dioxopiperazine-1-carboxamido)-2-(3-(sulfamoylamino)phenyl)acetamido)-2-hydroxy-3,4-dihydro-2H-benzo[e][1,2]oxaborinine-8-carboxylic acid]	< 30	> 64	> 64	> 64	> 64	> 64	> 64	> 64	16 to 32 (≈ 21.4 to 42.7 µM)	D (D represents a potency <10 μM)
NS(=O)(=O)c1cc(O)cc(C(NC(=O)N2CCN(Cc3c(F)cc(O)c(O)c3Cl)C(=O)C2=O)C(=O)N[C@H]2Cc3cccc(C(=O)O)c3OB2O)c1 (stereo partly drawn) [Example 132, (3R)-3-(2-(4-(2-chloro-6-fluoro-3,4-dihydroxybenzyl)-2,3-dioxopiperazine-1-carboxamido)-2-(3-hydroxy-5-sulfamoylphenyl)acetamido)-2-hydroxy-3,4-dihydro-2H-benzo[e][1,2]oxaborinine-8-carboxylic acid]	30 to 500	> 64	> 64	> 64	> 64	> 64	> 64	> 64	16 to 32 (≈ 21.3 to 42.7 µM)	D (D represents a potency <10 μM)
CCN1CCN(C(=O)NC(C(=O)N[C@H]2Cc3cccc(C(=O)O)c3OB2O)c2cc(F)c(C(=O)O)cc2F)C(=O)C1=O (stereo partly drawn) [Example 137, (3R)-3-(2-(4-carboxy-2,5-difluorophenyl)-2-(4-ethyl-2,3-dioxopiperazine-1-carboxamido)acetamido)-2-hydroxy-3,4-dihydro-2H-benzo[e][1,2]oxaborinine-8-carboxylic acid]	< 30	16 to 32 (≈ 27.2 to 54.4 µM)	4 to 8 (≈ 6.8 to 13.6 µM)	1 to 2 (≈ 1.7 to 3.4 µM)	4 to 8 (≈ 6.8 to 13.6 µM)	16 to 32 (≈ 27.2 to 54.4 µM)	4 to 8 (≈ 6.8 to 13.6 µM)	1 to 2 (≈ 1.7 to 3.4 µM)	0.25 to 0.5 (≈ 0.425 to 0.85 µM)	D (D represents a potency <10 μM)
CCN1CCN(C(=O)NC(C(=O)N[C@H]2Cc3cccc(C(=O)O)c3OB2O)c2cc(Cl)c(C(=O)O)cc2F)C(=O)C1=O (stereo partly drawn) [Example 138, (3R)-3-(2-(4-carboxy-5-chloro-2-fluorophenyl)-2-(4-ethyl-2,3-dioxopiperazine-1-carboxamido)acetamido)-2-hydroxy-3,4-dihydro-2H-benzo[e][1,2]oxaborinine-8-carboxylic acid]	< 30	16 to 32 (≈ 26.5 to 52.9 µM)	16 to 32 (≈ 26.5 to 52.9 µM)	1 to 2 (≈ 1.65 to 3.31 µM)	4 to 8 (≈ 6.61 to 13.2 µM)	16 to 32 (≈ 26.5 to 52.9 µM)	4 to 8 (≈ 6.61 to 13.2 µM)	4 to 8 (≈ 6.61 to 13.2 µM)	< 0.125	D (D represents a potency <10 μM)
CCN1CCN(C(=O)NC(C(=O)N[C@H]2Cc3cccc(C(=O)O)c3OB2O)c2cc(F)c(C(=O)O)c(F)c2)C(=O)C1=O (stereo partly drawn) [Example 141, (3R)-3-(2-(4-carboxy-3,5-difluorophenyl)-2-(4-ethyl-2,3-dioxopiperazine-1-carboxamido)acetamido)-2-hydroxy-3,4-dihydro-2H-benzo[e][1,2]oxaborinine-8-carboxylic acid]	< 30	4 to 8 (≈ 6.8 to 13.6 µM)	1 to 2 (≈ 1.7 to 3.4 µM)	0.25 to 0.5 (≈ 0.425 to 0.85 µM)	1 to 2 (≈ 1.7 to 3.4 µM)	4 to 8 (≈ 6.8 to 13.6 µM)	1 to 2 (≈ 1.7 to 3.4 µM)	1 to 2 (≈ 1.7 to 3.4 µM)	< 0.125	D (D represents a potency <10 μM)
NCCN1CCN(C(=O)NC(C(=O)N[C@H]2Cc3cccc(C(=O)O)c3OB2O)c2ccc(C(=O)O)cc2O)C(=O)C1=O (stereo partly drawn) [Example 142, (3R)-3-(2-(4-(2-aminoethyl)-2,3-dioxopiperazine-1-carboxamido)-2-(4-carboxy-2-hydroxyphenyl)acetamido)-2-hydroxy-3,4-dihydro-2H-benzo[e][1,2]oxaborinine-8-carboxylic acid]	30 to 500	> 64	> 64	4 to 8 (≈ 6.86 to 13.7 µM)	> 64	> 64	> 64	16 to 32 (≈ 27.4 to 54.9 µM)	4 to 8 (≈ 6.86 to 13.7 µM)	C (C represents a potency between 10 and 30 μM)
CCN1CCN(C(=O)NC(C(=O)N[C@H]2Cc3cccc(C(=O)O)c3OB2O)c2ccc(C(=O)O)cc2F)C(=O)C1=O (stereo partly drawn) [Example 145, (3R)-3-(2-(4-carboxy-2-fluorophenyl)-2-(4-ethyl-2,3-dioxopiperazine-1-carboxamido)acetamido)-2-hydroxy-3,4-dihydro-2H-benzo[e][1,2]oxaborinine-8-carboxylic acid]	< 30	4 to 8 (≈ 7.01 to 14 µM)	4 to 8 (≈ 7.01 to 14 µM)	1 to 2 (≈ 1.75 to 3.51 µM)	4 to 8 (≈ 7.01 to 14 µM)	16 to 32 (≈ 28.1 to 56.1 µM)	4 to 8 (≈ 7.01 to 14 µM)	1 to 2 (≈ 1.75 to 3.51 µM)	< 0.125	D (D represents a potency <10 μM)
CCN1CCN(C(=O)NC(C(=O)N[C@H]2Cc3cccc(C(=O)O)c3OB2O)c2c(Cl)cc(C(=O)O)cc2Cl)C(=O)C1=O (stereo partly drawn) [Example 150, (3R)-3-(2-(4-carboxy-2,6-dichlorophenyl)-2-(4-ethyl-2,3-dioxopiperazine-1-carboxamido)acetamido)-2-hydroxy-3,4-dihydro-2H-benzo[e][1,2]oxaborinine-8-carboxylic acid]	30 to 500	> 64	> 64	16 to 32 (≈ 25.8 to 51.5 µM)	> 64	> 64	> 64	> 64	4 to 8 (≈ 6.44 to 12.9 µM)	D (D represents a potency <10 μM)
